IC50 data for 22 compounds are collected here from patent US11566028B2, “Bicyclic heterocycles as FGFR inhibitors” (Incyte Corporation, priority 2019, dated 2023).

Read-outs that look alike come from different tables or passages of the source. Bounds are passed on as bounds.

Format in all cases: biochemical
In one test the target is FGFR1 (Homo sapiens (Human), UniProt P11362). Briefly: FGFR Enzymatic Assay (FRET peptide phosphorylation), FGFR1. The note with it: pre-incubated for 4 hours.
A further test has as its target FGFR2 (Homo sapiens (Human), UniProt P21802). Kind of test: FGFR Enzymatic Assay (FRET peptide phosphorylation), FGFR2.
For test [1], the target named is wild-type un-phosphorylated FGFR3 protein (Homo sapiens (Human), UniProt P22607). Briefly: FGFR Enzymatic Assay (FRET peptide phosphorylation), FGFR3. The note with it: pre-incubated for 4 hours.
Sequence of wild-type un-phosphorylated FGFR3 protein (P22607 23-806): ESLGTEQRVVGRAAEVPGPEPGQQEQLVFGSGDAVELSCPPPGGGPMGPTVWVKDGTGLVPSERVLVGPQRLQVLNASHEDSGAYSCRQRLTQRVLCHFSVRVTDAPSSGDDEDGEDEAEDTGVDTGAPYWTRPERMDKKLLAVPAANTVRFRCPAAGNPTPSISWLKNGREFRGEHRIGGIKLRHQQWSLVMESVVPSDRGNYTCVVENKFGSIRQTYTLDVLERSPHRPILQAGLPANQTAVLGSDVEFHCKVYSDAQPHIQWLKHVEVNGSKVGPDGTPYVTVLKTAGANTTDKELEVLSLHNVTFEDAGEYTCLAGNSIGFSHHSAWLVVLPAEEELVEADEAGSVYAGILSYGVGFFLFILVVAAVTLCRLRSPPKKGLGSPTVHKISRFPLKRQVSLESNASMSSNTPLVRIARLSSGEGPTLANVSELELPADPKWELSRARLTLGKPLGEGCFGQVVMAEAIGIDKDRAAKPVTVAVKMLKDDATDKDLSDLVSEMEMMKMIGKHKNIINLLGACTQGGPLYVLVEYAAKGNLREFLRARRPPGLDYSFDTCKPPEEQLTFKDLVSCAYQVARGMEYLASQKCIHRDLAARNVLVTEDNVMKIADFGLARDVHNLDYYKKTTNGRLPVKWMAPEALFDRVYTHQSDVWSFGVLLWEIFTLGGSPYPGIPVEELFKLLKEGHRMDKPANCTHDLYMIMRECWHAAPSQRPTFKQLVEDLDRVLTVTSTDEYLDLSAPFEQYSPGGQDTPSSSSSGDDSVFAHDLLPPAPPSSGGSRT

Sequence of FGFR2 (P21802 22-821): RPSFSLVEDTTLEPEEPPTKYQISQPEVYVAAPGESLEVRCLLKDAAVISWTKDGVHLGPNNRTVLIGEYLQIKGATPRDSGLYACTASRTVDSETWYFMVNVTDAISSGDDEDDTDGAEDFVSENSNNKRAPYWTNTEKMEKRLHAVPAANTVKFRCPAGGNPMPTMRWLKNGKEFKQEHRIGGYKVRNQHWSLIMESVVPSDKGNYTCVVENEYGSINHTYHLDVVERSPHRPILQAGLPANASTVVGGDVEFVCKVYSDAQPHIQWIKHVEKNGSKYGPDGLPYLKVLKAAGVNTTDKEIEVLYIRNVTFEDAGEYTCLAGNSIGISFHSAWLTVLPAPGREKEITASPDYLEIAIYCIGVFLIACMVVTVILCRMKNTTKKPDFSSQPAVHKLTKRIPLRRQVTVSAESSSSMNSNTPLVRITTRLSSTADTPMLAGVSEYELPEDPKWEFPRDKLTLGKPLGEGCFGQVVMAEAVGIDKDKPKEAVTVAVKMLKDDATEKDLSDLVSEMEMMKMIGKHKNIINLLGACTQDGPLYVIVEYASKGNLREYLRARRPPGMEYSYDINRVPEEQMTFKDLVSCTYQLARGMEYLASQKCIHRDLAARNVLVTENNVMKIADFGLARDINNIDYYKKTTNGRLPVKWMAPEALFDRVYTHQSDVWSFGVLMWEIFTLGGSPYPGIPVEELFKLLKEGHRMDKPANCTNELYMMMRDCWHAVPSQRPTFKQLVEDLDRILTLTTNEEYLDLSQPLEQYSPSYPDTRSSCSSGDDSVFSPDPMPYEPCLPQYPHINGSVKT
Sequence of FGFR1 (P11362 22-822): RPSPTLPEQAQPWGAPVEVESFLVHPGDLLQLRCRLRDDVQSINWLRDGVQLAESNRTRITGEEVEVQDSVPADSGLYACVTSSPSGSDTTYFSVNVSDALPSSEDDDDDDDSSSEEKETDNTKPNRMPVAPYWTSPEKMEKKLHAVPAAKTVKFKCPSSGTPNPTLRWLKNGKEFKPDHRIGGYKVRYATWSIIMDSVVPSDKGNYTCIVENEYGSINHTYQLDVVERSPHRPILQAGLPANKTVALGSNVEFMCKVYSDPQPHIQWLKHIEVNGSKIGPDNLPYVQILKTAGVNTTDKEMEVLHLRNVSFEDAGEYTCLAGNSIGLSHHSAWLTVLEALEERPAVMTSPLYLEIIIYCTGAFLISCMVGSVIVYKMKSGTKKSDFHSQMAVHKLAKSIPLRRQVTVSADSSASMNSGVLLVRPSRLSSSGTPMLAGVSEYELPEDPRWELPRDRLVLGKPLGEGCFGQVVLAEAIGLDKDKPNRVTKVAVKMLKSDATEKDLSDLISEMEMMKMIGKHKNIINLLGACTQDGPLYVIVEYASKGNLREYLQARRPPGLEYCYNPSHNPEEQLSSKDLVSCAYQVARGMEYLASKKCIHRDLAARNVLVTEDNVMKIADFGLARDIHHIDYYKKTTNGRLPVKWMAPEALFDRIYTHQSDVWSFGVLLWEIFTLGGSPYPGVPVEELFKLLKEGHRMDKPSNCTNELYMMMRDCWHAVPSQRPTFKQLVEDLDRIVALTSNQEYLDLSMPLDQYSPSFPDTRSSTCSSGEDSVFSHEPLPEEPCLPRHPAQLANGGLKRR

As for `CNC(=O)c1cc(O)c(F)c(-c2cnn3cc(-c4cnn(C)c4)c(O[C@H]4CCOC4)nc23)c1` [Example 31, (S)-4-Fluoro-3-hydroxy-N-methyl-5-(6-(1-methyl-1H-pyrazol-4-yl)-5-((tetrahydrofuran-3-yl)oxy)pyrazolo[1,5-a]pyrimidin-3-yl)benzamide], the 50% inhibitory concentration (IC50) on FGFR1 is 10 to 30 nM; against FGFR2 (pre-incubated for 4 hours), less than 10 nM; in test [1] it was less than 10 nM.
On to `CNC(=O)c1cc(F)c(F)c(-c2cnn3cc(-c4cnn(Cc5cccnc5)c4)c(N[C@H]4CCOC4)nc23)c1` [Example 52, (S)-3,4-Difluoro-N-methyl-5-(6-(1-(pyridin-3-ylmethyl)-1H-pyrazol-4-yl)-5-((tetrahydrofuran-3-yl)amino)pyrazolo[1,5-a]pyrimidin-3-yl)benzamide], for which the IC50 (on FGFR1; against FGFR2 (pre-incubated for 4 hours); in test [1]) was less than 10 nM throughout.
As to `CNC(=O)c1cncc(-c2cnn3cc(-c4ccc(N5CCN(C)CC5)cc4)c(O[C@H]4CCOC4)nc23)c1` [Example 18, (S)—N-Methyl-5-(6-(4-(4-methylpiperazin-1-yl)phenyl)-5-((tetrahydrofuran-3-yl)oxy)pyrazolo[1,5-a]pyrimidin-3-yl)nicotinamide], the IC50 at FGFR1 was 30 to 200 nM; against FGFR2 (pre-incubated for 4 hours), less than 10 nM; in test [1], less than 10 nM.
On to `CNC(=O)c1cc(-c2cnn3cc(-c4cnn(C5CCC5)c4)c(O[C@H]4CCOC4)nc23)cc(S(C)(=O)=O)c1` [Example 32, (S)-3-(6-(1-Cyclobutyl-1H-pyrazol-4-yl)-5-((tetrahydrofuran-3-yl)oxy)pyrazolo[1,5-a]pyrimidin-3-yl)-N-methyl-5-(methylsulfonyl)benzamide], for which the results for the 50% inhibitory concentration (IC50) (at FGFR1; on FGFR2 (pre-incubated for 4 hours); in test [1]) were not below 200 nM, 30 to 200 nM and not below 200 nM, respectively.
Consider `CNC(=O)c1cc(C)c(F)c(-c2cnn3cc(-c4cnc(C5(F)CCN(C)CC5)o4)c(N[C@H]4CCOC4)nc23)c1` [Example 69, (S)-4-Fluoro-3-(6-(2-(4-fluoro-1-methylpiperidin-4-yl)oxazol-5-yl)-5-((tetrahydrofuran-3-yl)amino)pyrazolo[1,5-a]pyrimidin-3-yl)-N,5-dimethylbenzamide], for which the IC50 on FGFR1 is 30 to 200 nM; against FGFR2 (pre-incubated for 4 hours), less than 10 nM; in test [1], less than 10 nM.
With `CNC(=O)c1cc(-c2cnn3cc(-c4cnn(C)c4)c(N[C@H]4CCOC4)nc23)c(F)c(C(F)F)c1` [Example 47, (S)-3-(Difluoromethyl)-4-fluoro-N-methyl-5-(6-(1-methyl-1H-pyrazol-4-yl)-5-((tetrahydrofuran-3-yl)amino)pyrazolo[1,5-a]pyrimidin-3-yl)benzamide], the IC50 was 10 to 30 nM on FGFR1, less than 10 nM against FGFR2 (pre-incubated for 4 hours) and less than 10 nM in test [1].
For the compound `CNC(=O)c1cc(F)c(F)c(-c2cnn3cc(-c4ccc(C)nc4)c(O[C@H]4CCOC4)nc23)c1` [Example 15, (S)-3,4-Difluoro-N-methyl-5-(6-(6-methylpyridin-3-y1)-5-((tetrahydrofuran-3-yl)oxy)pyrazolo[1,5-a]pyrimidin-3-yl)benzamide], the figures for the concentration for half-maximal inhibition (IC50) (against FGFR1; against FGFR2; in test [1]) were 30 to 200 nM, less than 10 nM and less than 10 nM, respectively.
With `CNC(=O)c1cc(F)c(F)c(-c2cnn3cc(-c4cnn(CC5CCOCC5)c4)c(N[C@H]4CCOC4)nc23)c1` [Example 54, (S)-3,4-Difluoro-N-methyl-5-(6-(1-((tetrahydro-2H-pyran-4-yl)methyl)-1H-pyrazol-4-y1)-5-((tetrahydrofuran-3-yl)amino)pyrazolo[1,5-a]pyrimidin-3-yl)benzamide], the IC50 (at FGFR1; against FGFR2; in test [1]) was less than 10 nM throughout.
In the case of `CNC(=O)c1cncc(-c2cnn3cc(-c4cnn(C5CCC5)c4)c(O[C@H]4CCOC4)nc23)c1` [Example 22, (S)-5-(6-(1-Cyclobutyl-1H-pyrazol-4-yl)-5-((tetrahydrofuran-3-yl)oxy)pyrazolo[1,5-a]pyrimidin-3-yl)-N-methylnicotinamide], the IC50 against FGFR1 was 10 to 30 nM; against FGFR2 (pre-incubated for 4 hours), less than 10 nM; in test [1], less than 10 nM.
For `CNC(=O)c1cncc(-c2cnn3cc(-c4cnn(C5CC5)c4)c(O[C@H]4CCOC4)nc23)c1` [Example 21, (S)-5-(6-(1-Cyclopropyl-1H-pyrazol-4-yl)-5-((tetrahydrofuran-3-yl)oxy)pyrazolo[1,5-a]pyrimidin-3-yl)-N-methylnicotinamide], the IC50 against FGFR1 is 30 to 200 nM; against FGFR2 (pre-incubated for 4 hours), less than 10 nM; in test [1], less than 10 nM.
Turning to `CNC(=O)c1ccc(F)c(-c2cnn3cc(-c4cnn(C)c4)c(OC4CCOC4)nc23)c1` (racemic) [Example 2, 4-Fluoro-N-methyl-3-(6-(1-methyl-1H-pyrazol-4-yl)-5-((tetrahydrofuran-3-yl)oxy)pyrazolo[1,5-a]pyrimidin-3-yl)benzamide], the IC50 against FGFR1 is 30 to 200 nM; against FGFR2 (pre-incubated for 4 hours), less than 10 nM; in test [1], less than 10 nM.
`CNC(=O)c1cc(C)c(F)c(-c2cnn3cc(-c4cnn(C)c4)c(N[C@H]4CCOC4)nc23)c1` [Example 16, (S)-4-Fluoro-N,3-dimethyl-5-(6-(1-methyl-1H-pyrazol-4-yl)-5-((tetrahydrofuran-3-yl)amino)pyrazolo[1,5-a]pyrimidin-3-yl)benzamide]: the figures for the IC50 (against FGFR1; against FGFR2 (pre-incubated for 4 hours); in test [1]) were 30 to 200 nM, less than 10 nM and less than 10 nM, respectively.
As for `CNC(=O)c1cc(F)c(F)c(-c2cnn3cc(-c4ccn(C(C)C)c(=O)c4)c(N[C@H]4CCOC4)nc23)c1` [Example 56, (S)-3,4-Difluoro-5-(6-(1-isopropyl-2-oxo-1,2-dihydropyridin-4-y1)-5-((tetrahydrofuran-3-yl)amino)pyrazolo[1,5-a]pyrimidin-3-y1)-N-methylbenzamide], the IC50 is 10 to 30 nM on FGFR1, less than 10 nM on FGFR2 and less than 10 nM in test [1].
For `CNC(=O)c1cc(-c2cnn3cc(-c4cnn(CCOC)c4)c(N[C@H]4CCOC4)nc23)c(F)c(C(F)F)c1` [Example 50, (S)-3-(Difluoromethyl)-4-fluoro-5-(6-(1-(2-methoxyethyl)-1H-pyrazol-4-yl)-5-((tetrahydrofuran-3-yl)amino)pyrazolo[1,5-a]pyrimidin-3-yl)-N-methylbenzamide], the half-inhibitory concentration (IC50) is 10 to 30 nM against FGFR1, less than 10 nM against FGFR2 (pre-incubated for 4 hours) and less than 10 nM in test [1].
In the case of `[2H]C([2H])([2H])NC(=O)c1cc(C)c(F)c(-c2cnn3cc(-c4cnn(C5CCN(C(C)C)CC5)n4)c(N[C@H]4CCOC4)nc23)c1` [Example 67, (S)-4-Fluoro-3-(6-(2-(1-isopropylpiperidin-4-yl)-2H-1,2,3-triazol-4-yl)-5-((tetrahydrofuran-3-yl)amino)pyrazolo[1,5-a]pyrimidin-3-yl)-5-methyl-N-(methyl-d3)benzamide], the IC50 (against FGFR1; at FGFR2 (pre-incubated for 4 hours); in test [1]) was less than 10 nM each time.
On to `CNC(=O)c1cc(C)c(F)c(-c2cnn3cc(-c4cnn(CCC#N)c4)c(N[C@H]4CCOC4)nc23)c1` [Example 37, (S)-3-(6-(1-(2-Cyanoethyl)-1H-pyrazol-4-y1)-5-((tetrahydrofuran-3-yl)amino)pyrazolo[1,5-a]pyrimidin-3-y1)-4-fluoro-N,5-dimethylbenzamide], for which the results for the IC50 (on FGFR1; at FGFR2; in test [1]) were 10 to 30 nM, less than 10 nM and less than 10 nM, respectively.
On to `CNC(=O)c1cc(C)c(F)c(-c2cnn3cc(-c4cnn(C)c4)c(O[C@H]4CCOC4)nc23)c1` [Example 5, (S)-4-Fluoro-N,3-dimethyl-5-(6-(1-methyl-1H-pyrazol-4-yl)-5-((tetrahydrofuran-3-yl)oxy)pyrazolo[1,5-a]pyrimidin-3-yl)benzamide], for which the IC50 (on FGFR1; on FGFR2 (pre-incubated for 4 hours); in test [1]) was less than 10 nM each time.
With `CNC(=O)c1cccc(-c2cnn3cc(-c4cnn(C)c4)c(OC4CCOC4)nc23)c1` (racemic) [Example 1, N-Methyl-3-(6-(1-methyl-1H-pyrazol-4-yl)-5-((tetrahydrofuran-3-yl)oxy)pyrazolo[1,5-a]pyrimidin-3-yl)benzamide], the IC50 at FGFR1 is 30 to 200 nM; on FGFR2 (pre-incubated for 4 hours) it was less than 10 nM; in test [1], less than 10 nM.
Consider `CNC(=O)c1cc(C#N)cc(-c2cnn3cc(-c4cnn(C)c4)c(O[C@H]4CCOC4)nc23)c1` [Example 6, (S)-3-Cyano-N-methyl-5-(6-(1-methyl-1H-pyrazol-4-yl)-5-((tetrahydrofuran-3-yl)oxy)pyrazolo[1,5-a]pyrimidin-3-yl)benzamide], for which the IC50 against FGFR1 is 10 to 30 nM; against FGFR2 (pre-incubated for 4 hours), less than 10 nM; in test [1], less than 10 nM.
On to `CNC(=O)c1cc(C#N)cc(-c2cnn3cc(-c4ccncc4)c(O[C@H]4CCOC4)nc23)c1` [Example 30, (S)-3-Cyano-N-methyl-5-(6-(pyridin-4-yl)-5-((tetrahydrofuran-3-yl)oxy)pyrazolo[1,5-a]pyrimidin-3-yl)benzamide], for which the results for the IC50 (on FGFR1; against FGFR2 (pre-incubated for 4 hours); in test [1]) were 30 to 200 nM, 10 to 30 nM and less than 10 nM, respectively.
Take `[2H]C([2H])([2H])NC(=O)c1cc(C)c(F)c(-c2cnn3cc(-c4cnc(C5CCN(C(C)C)CC5)o4)c(N[C@H]4CCOC4)nc23)c1` [Example 68, (S)-4-Fluoro-3-(6-(2-(1-isopropylpiperidin-4-yl)oxazol-5-yl)-5-((tetrahydrofuran-3-yl)amino)pyrazolo[1,5-a]pyrimidin-3-yl)-5-methyl-N-(methyl-d3)benzamide]: the figures for the IC50 (at FGFR1; at FGFR2 (pre-incubated for 4 hours); in test [1]) were 30 to 200 nM, less than 10 nM and less than 10 nM, respectively.
As for `CNC(=O)c1cc(F)c(F)c(-c2cnn3cc(-c4ccc(C(C)(C)O)nc4)c(N[C@H]4CCOC4)nc23)c1` [Example 57, (S)-3,4-Difluoro-5-(6-(6-(2-hydroxypropan-2-yl)pyridin-3-y1)-5-((tetrahydrofuran-3-yl)amino)pyrazolo[1,5-a]pyrimidin-3-y1)-N-methylbenzamide], the IC50 against FGFR1 is 30 to 200 nM; at FGFR2, less than 10 nM; in test [1], less than 10 nM.
